# Laboratory results taken from patent US20140066324A1, “GENE EXPRESSION SIGNATURE IN SKIN PREDICTS RESPONSE TO MYCOPHENOLATE MOFETIL” (NORTHWESTERN UNIVERSITY, priority 2011, published 2014).
# How the values were obtained:
# [1] = SSc patients; cited from earlier work
# skin fibrosis = test: Morphology of skin biopsy specimens, H&E staining of paraffin embedded sections; type: in vivo, human
# Experimental: Patients seen at the Northwestern Scleroderma Program who met American College of Rheumatology criteria for SSc with a mRSS≧16 and would be receiving mycophenolate mofetil for the indication of progressive skin tightening were assessed. All patients provided written informed consent in accordance with the Institutional Review Board Guidelines of Northwestern University. Patients underwent a standardized physical exam, including mRSS performed by one clinician at study entry (prior to treatment) and at 6 months and 12 months post MMF initiation. […] from clinically involved skin (forearm) and clinically uninvolved skin (back) from the non-dominant side of the body. Two biopsies (one from forearm and back) were placed in RNAlater® (Applied Biosystems, Ambion®, Carlsbad, Calif., U.S.A.) and used for DNA microarray analysis and the other biopsy was placed in 10% neutral buffered formalin and used for histological analyses.
# To confirm the physical exam finding of softened skin in MMF-responders, the morphology of skin biopsy specimens was examined using routine H&E staining of paraffin embedded sections.
Compound,clinical response [1],"extent of skin fibrosis, pre- vs post-treatment biopsies (skin fibrosis; MMF responders)",skin fibrosis and dermal appendages (skin fibrosis; MMF-nonresponder)
rituximab,no clinical benefit,–,–
"COc1c(C)c2c(c(O)c1C/C=C(\C)CCC(=O)OCCN1CCOCC1)C(=O)OC2 [MMF, mycophenolate mofetil]",–,clear differences in the extent of fibrosis between pre- and post-treatment biopsies in responders,greater degree in skin fibrosis and a further loss of the normal dermal appendages
